Experimental data: patent US20250345426A1, “METHODS FOR MAKING AND USING THERAPEUTIC CELLS” (THE REGENTS OF THE UNIVERSITY OF CALIFORNIA, priority 2022, published 2025)

Test system: rituximab CAR-T cells
Assay: Antigen-independent activation and exhaustion marker expression by flow cytometry, rituximab CAR-T cells
Assay type: cell-based, human
Details: for measures of antigen-independent CAR-T cell activation: FIG. 1B-D (markers, TNF-α, cell division), MYCi975 2 μM
From the text: FIG. 1A-G. Pharmacological inhibition of PI3K/AKT pathway modulates antigen-independent CAR-T cell activation. (A) Table of pharmacological inhibitors used during ex vivo expansion of rituximab CAR-T cells (left). Simplified schematic of the PI3K/AKT signaling axis where black arrows represent activation (right). (B) Activation marker expression by CAR^+ T cells in the absence of antigen stimulation after 5 days of pharmacological modulation. Data bars indicate the means of technical triplicates±1 S.D. The bars in FIG. 1B represent data from, untreated, vehicle, CAL-101, AZD5363, Rapamycin, MYCi975, and Betulin, respectively, from left to right. (C) TNF-α production CAR^+ T cells in the absence of antigen stimulation as quantified by intracellular flow cytometry. Data bars indicate the means of technical triplicates±1 S.D. The bars in FIG. 1B and FIG. 1C represent data from, untreated, vehicle, CAL-101, AZD5363, Rapamycin, MYCi975, and Betulin, respectively, from left to right. (D) Proliferation of CAR^+ T cells stained with CellTrace Violet (CTV) dye was assayed after a 4-day culture in the absence of target cells or exogenous cytokines. Data shown in the histogram correspond to one of technical triplicates shown in the bar graph. The bars FIG. 1D represent data from, EGFRt, untreated, vehicle, CAL-101, AZD5363, Rapamycin, MYCi975, and Betulin, respectively, from left to right. (E) % distribution of T-cell subtypes in CAR^+ T cells after 5 days of pharmacological modulation. Data bars indicate the means of technical triplicates±1 S.D. (F) Rituximab CAR-T cell fold expansion after 6 days of inhibitor culture was tracked. T-cell fold expansion was normalized to the untreated control with each data point representing biological replicates collected from healthy donors. The bars FIG. 1F represent data from, EGFRt, vehicle, CAL-101, AZD5363, Rapamycin, MYCi975, and Betulin, respectively, from left to right. (G) A 24-hr lysis assay of CD20 CAR-T cells against Raji target cells at three effector-to-target (E:T) ratios. Data bars indicate the means of technical triplicates±1 S.D. Percent lysis was normalized to cell counts in target-only wells. […] In (B)-(F), results are representative two independent experiments using cells from of two heathy donors. Statistical significance in panels B, C, and D was determined by two-tailed Student's t test with Sidak correction for multiple comparisons. * p<0.05, ** p<0.01, *** p<0.001, n.s. not statistically significant. […]
Antibody staining for flow-cytometry analysis. EGFRt expression was measured with biotinylated cetuximab (Eli Lilly; biotinylated in-house), followed by PE-conjugated streptavidin (Jackson ImmunoResearch #016-110-084). CAR expression was quantified by surface epitope staining using anti-Fc (Alexa Fluor 488, Jackson ImmunoResearch #709-546-098). Antigen-independent activation-marker expression of CAR-T cells was evaluated by antibody staining for CD137 (PE/Cy7, clone 4B4-1, BioLegend #309818), and PD-1 (FITC, clone EH12.2H7, BioLegend #329904) on Days 18 (i.e., 18 days after Dynabead addition and 11 days after Dynabead removal) and after 5-6 days of inhibitor culture (FIG. 1, FIG. 3). T-cell subtype of CAR-T cells was evaluated by antibody staining for CD45RO (VioBlue®, clone REA611, Miltenyi #130-119-620) and CD62L (APC, clone DREG56, Invitrogen #17-0629-42) after 5-6 days of inhibitor culture (FIG. 1, FIG. 3). […]

| Compound | tonic signaling | measures of antigen-independent CAR-T cell activation |
| --- | --- | --- |
| C=C(C)[C@@H]1CC[C@]2(CO)CC[C@]3(C)[C@H](CC[C@@H]4[C@@]5(C)CC[C@H](O)C(C)(C)[C@@H]5CC[C@]43C)[C@@H]12 [betulin, Betulin] | increased | increased most measures |
| MYCi975 | increased | increased most measures |
